Values quoted from earlier work, collected in US20070010756A1 (priority 2005, published 2007).

System: patients
Details: in vivo

CC(C)c1cccc(C(C)C)c1O [propofol]
BIS value at which 50 percent of the patients had lost consciousness (95 percent confidence interval): 61 (59-62) | Response Entropy (RE) value at which 50 percent of the patients had lost consciousness (95 percent confidence interval): 70 (68-72) | State Entropy (SE) value at which 50 percent of the patients had lost consciousness (95 percent confidence interval): 64 (62-66)
